Reference: publication PMC8327158, “PEGylated AdipoRon derivatives improve glucose and lipid metabolism under insulinopenic and high-fat diet conditions” (Journal of Lipid Research, 2021)
≈ marks a conversion by molar mass, not a printed value.

What was measured:
ceramidase = experiment: Ceramidase activity assay in lysate of treated INS1 cells; type: cell-based, rat; settings: INS1 cells treated 20 μM 24 h
Procedure: INS1 cells were cultured in 10 cm dish and treated with AdipoRon or AdipoRonPEG5 (20 μM) for 24 h. Remove the media and collect cells using a cell scraper and transfer cells to a 1.5 ml tube. Centrifuge to spin down the cells before freezing in liquid nitrogen. Cell pellets were stored at –80°C till analysis. During analysis, INS1 cell pellets on dry ice were mixed with 500 μl of Dulbecco PBS with Ca^2+ and Mg^2+. The sample was then immediately placed on ice and lysed with a tissue disruptor probe (Fisher Scientific, Model FB50, Waltham MA) by performing five short disruption cycles at a power of 30% (3 s each cycle). Briefly perform a gentle vortexing of the vial. Take an aliquot of 50 μl of sample for protein determination (Pierce™ BCA Protein Assay Kit, Thermo Fisher Scientific). In total, 400 μl of lysate was transferred to a culture borosilicate glass tube containing 1.6 ml of Dulbecco PBS with Ca^2+ and Mg^2+ on ice. […] All the samples and serial dilutions were analyzed by injecting 1 μl in the LC-MS/MS system: Shimadzu LCMS-8060 triple-quadrupole mass spectrometer coupled to a Nexera X2 UHPLC chromatograph (Shimadzu Scientific Instruments, Columbia, MD) operating the dual ion source (DUIS) in electrospray positive ionization mode. […]

[1] = tested on: AMPK and ACC phosphorylation; experiment: Western blot of AMPK and ACC phosphorylation in liver and subcutaneous adipose tissue; type: in vivo, mouse
Procedure: Protein was extracted from the adipose tissue by homogenization in PBS supplemented with 1 mM EDTA, 20 mM NaF, 2 mM Na3VO4, and protease inhibitor cocktail. 5× RIPA buffer was added to the homogenate for a final concentration of 10 mM Tris-HCl, 2 mM EDTA, 0.3% NP40, 0.3% deoxycholate, 0.1% SDS, and 140 mM NaCl, pH 7.4. The sample was centrifuged at 10,000 g for 5 min. In total, 20–50 μg/lane of supernatant protein was separated by SDS-PAGE (NP0335BOX, Thermo Fisher) and transferred to nitrocellulose membrane. The blots were then incubated overnight at 4°C with primary antibodies (1:1,000) in a 1% BSA TBST-blocking solution. Primary antibodies are listed in supplemental Table S3. Primary antibodies were detected using secondary antibodies labeled with infrared dyes emitting at 700 nm or 800 nm (1:5,000, Li-Cor Bioscience 925-68073 and 926-32213, respectively) The Odyssey Infrared Imager was used to visualized western blots with Li-Cor IRdye secondary antibodies.

[2] = Water solubility quantified by LC-MS/MS; type: physicochemical; settings: for solubility: water
Procedure: We quantified the solubilities of AdiponRons by LC-MS/MS. Briefly, water (HPLC grade) was added in 50–100 μl increments to a glass vial containing either AdipoRon (0.97 mg) or AdipoRonPEG5 (1.69 mg), vortexed until the compound started to dissolve (AdipoRon, […]; AdipoRonPEG5, […]). The suspension was then stirred overnight away from light. The solution was transferred to Teflon tubes and centrifuged at 15,000 rpm at room temperature for 10 min. We then collected the supernatant (aqueous saturated solution) for dilution and analysis.
For standards, 98 μl water was added to an Eppendorf tube and combined with 200 μl of methanol containing 0.15% formic acid and 75 ng/ml […] Standard (IS, n-benzeylbenzamide in MeOH. IS final conc. = 50 ng/ml). Samples were spiked with 2 μl of IS. The samples were vortexed 15 s, and spun 2 × 13,200 rpm in a standard microcentrifuge. The supernatant was then analyzed by LC-MS/MS on a QTrap 4000 system (AB Sciex) with the following settings: Ion Source/Gas Parameters: CUR = 25, CAD = medium, IS = 5,000, TEM = 500, GS1 = 70, GS2 = 70. Buffer A: Water + 0.1% formic acid + 2 mM NH4OAC; Buffer B: methanol + 0.1% formic acid + 2 mM NH4OAC; flow rate 1.5 ml/min; Agilent C18 XDB column, 5 micron packing 50 × 4.6 mm size. HPLC elution gradient: 0–0.5 min 97% A, 0.5–2.0 min gradient to 100% B, 2.0–3.5 min 100% B, 3.5–3.6 min gradient to 97% A, 3.6–4.1 97% A. Compound transition 429.156 to 174.1 for AdipoRon and 665.289 to 135.2 for AdipoRonPEG5.

| solubility in water ([2]; LC-MS/MS, mean ± SD) [µg/mL] | SMILES | ceramidase activity / labeled ceramide levels in cell lysate (ceramidase) | p-AMPK levels in the liver, AdipoRon versus AdipoRonPEG5 ([1]; HFD-induced obese mice) | solubility ([2]; LC-MS/MS, mean ± SD) [µg/mL] | ACC phosphorylation in the subcutaneous adipose tissue ([1]; single treatment) | AMPK pathway in the liver ([1]; single treatment) | times more soluble in water than the parent molecule ([2]; vs AdipoRon) |
| --- | --- | --- | --- | --- | --- | --- | --- |
| 9 (≈ 21 µM) | O=C(COc1ccc(C(=O)c2ccccc2)cc1)NC1CCN(Cc2ccccc2)CC1 [AdipoRon] | remained essentially the same as untreated control | higher | 8.99 ± 0.15 (≈ 21 µM) | – | – | – |
| – | O=C(COc1ccc(C(=O)c2ccccc2)cc1)NC1CCN(Cc2ccc(OCCOCCOCCOCCOCCO)cc2)CC1 [AdipoRonPEG5] | reduced levels of labeled ceramides | – | 910 ± 36 (≈ 1370 µM) | enhanced | activated | about 100 times |
